Experimental data: patent publication US6756480B2, “Modulators of receptors for parathyroid hormone and parathyroid hormone-related protein” (Amgen Inc., priority 2000, dated 2004)

Tests used:
Assay type in all cases: in vivo
male BDF1 mice = test: Monotherapy in adult mice: twice-weekly PTH-(1-34)-Fc versus daily PTH-(1-34), tibial BMD by pQCT
Protocol: Daily PTH [PTH-(1-34)] was given at 80 μg/kg/day (20 nmol/kg/day).
Briefly, male BDF1 mice (4 months of age) were treated twice per week by subcutaneous injection with various doses of PTH-(1-34)-Fc or with vehicle (PBS). Other mice were treated daily with SC injections of PTH-(1-34) at a dose of 80 μg/kg/day (20 nmol/kg/day), a treatment regimen which is optimal for increasing bone mass in rodents (M. Gunness-Hey and J. M. Hock, Metab. Bone Dis. & Rel. Res. 5:177-181, 1984). After 3 weeks, mice were sacrificed and tibiae were analyzed for bone mineral density (BMD) via pQCT (FIG. 10).

mice [1] = test: Mouse bioassay: SC injection days 0, 5, 10; clinical chemistry (calcium, AP, TRAP) and tibial pQCT
Protocol: Peripheral blood was obtained daily for 3 days following single subcutaneous injections of the indicated compounds.
Peripheral quantitative computed tomography (pQCT) was performed on the proximal tibial metaphysis of mice on day 15, after injections of PTH constructs on day 0, 5 and 10.
We then tested the effects of PTH-(1-34), PTH-(1-34)-Fc, PTH-(1-31)-Fc and PTH-(1-30)-Fc in mice. Four week old male mice were injected on days 0, 5, and 10 with vehicle or with PTH fragments, by SC injection. Peripheral blood was obtained for clinical chemistry at 24, 48, and 72 h. Mice were killed on day 15, vertebrae, tibiae and femurs were harvested for histology and one tibia was collected for bone density measurements (peripheral quantitative computed tomography, pQCT). Clinical chemistry endpoints included total serum calcium, serum alkaline phosphatase (AP, a marker of osteoblast activity), and serum tartrate-resistant acid phosphatase (TRAP, a marker of osteoclast activity). For each animal, the ratio of AP:TRAP was calculated as an index of relative osteoblast activity compared to osteoclast activity. A higher AP:TRAP ratio would indicate a potentially more anabolic agent.

Sprague Dawley (SD) rats = test: Anabolic assay: lumbar (L3) BMD by DEXA, PTH constructs with or without OPG-Fc; conditions: 6-month-old male SD rats, DEXA Day 7; OPG-Fc 1 mg/kg once; PTH-(1-34) 20 nMoles/kg x3; PTH-(1-34)-Fc 60 nMoles/kg once
Protocol: Briefly, 6-month-old male Sprague Dawley (SD) rats were divided into groups of 6. Baseline bone mineral density (BMD) was determined in the third lumbar vertebra (L3) of all rats by dual-energy X-ray absorptiometry (DEXA) (Day 0). Rats were then treated according to the following schedule:
Group 1: Vehicle controls (PBS, injected SC, Days 1, 3, and 5)
Group 2: OPG-Fc, single SC injection (1 mg/kg) on Day 1
Group 3: PTH-(1-34), SC injections on Days 1, 3, and 5, at 20 nMoles PTH/kg/injection. This represents an optimal anabolic PTH regimen.
Group 4: Same as group 3, but with a single OPG-Fc injection on Day 1.
Group 5: Single SC injection of PTH-(1-34)-Fc at 60 nMoles/kg, on Day 1. This represents a molar dose which is equivalent to the total dose of PTH-(1-34) received by group 3, but in a single injection.
Group 6: Same as group 5, but with a single OPG-Fc injection (SC, 1 mg/kg) on Day 1.
DEXA of the lumbar spine was performed again on Day 7 to evaluate changes in BMD. […] The anabolic effect of a single treatment with PTH-(1-34)-Fc plus OPG-Fc was greater than that induced by multiple injections of PTH-(1-34), with or without OPG-Fc co-treatment.
Normal 6 month old male rats were treated with PTH-Fc or PTH or vehicle by a single SC injection. Some rats also received a single SC injection of OPG. BMD was determined 7 days later by DEXA. Data represent means+SD, N=6 rats/group.

mice [2] = test: Hypercalcemia assay: murine hypercalcemia model, single SC injection, blood ionized calcium
Protocol: Mice were challenged with vehicle (PBS, —X—), or with PTH-(1-34) (open symbols) or with PTH-(1-34)-Fc (closed symbols). Doses were 156 nmol/kg (circles), 469 nmol/kg (triangles) or 1,560 nmol/kg (squares). Data represent group means, n=6 mice/group.
We tested the potency and duration of effect of PTH-(1-34)-Fc in a murine hypercalcemia model. Briefly, mice were injected once SC with varying doses of PTH-(1-34) or PTH-(1-34)-Fc, and peripheral blood was collected from the retroorbital sinus for determination of blood ionized calcium. The half-life and the potency of PTH-(1-34)-Fc was greater than that of PTH-(1-34), as evidenced by the sustained hypercalcemic response of mice to the former agent (FIG. 4). Hypercalcemia induced by PTH-(1-34) persisted for 6-24 h, while equimolar doses of PTH-(1-34)-Fc caused more sustained hypercalcemia (48-72 h). This duration of response is consistent with greater half-life of the PTH-(1-34)-Fc construct vs. PTH-(1-34).

OVX cynomolgus monkeys = test: Single subcutaneous injection into OVX cynomolgus monkeys, serum total calcium
Protocol: Monkeys were injected with PTH-(1-34)-Fc at doses of 1-30 μg/kg (n=1/group) or 100-1000 μg/kg (n=2/group). Serum was analyzed for total calcium. The dotted line indicates the threshold for hypercalcemia, based on an elevation of calcium greater than three standard deviations above the normal mean, on two or more consecutive timepoints.
The optimal dosing of primates may be less frequent compared to rats or mice. Weekly (or less frequent) dosing may be optimal in primates, based on the observation that the hypercalcemic response of OVX cynomolgus monkeys to a single subcutaneous injection of PTH-(1-34)-Fc (10-34 nmol/kg) persisted for about 168 hours (FIG. 11).

[3] = 3 weeks, PTH-(1-34) daily 80 μg/kg/day, PTH-(1-34)-Fc twice weekly, various doses
[4] = two highest doses, 50 and 150 nmol/kg twice weekly

Q: Which “cancellous BMD compared to vehicle” value (male BDF1 mice; [3]) does the source give for “PTH-(1-34)-Fc: human PTH-(1-34), SVSEIQLMHNLGKHLNSMERVEWLRKKLQDVHNF, linked at its C-terminus to an Fc domain” here?
A: dose-dependent increases

Q: What about the “total tibial BMD compared to vehicle” value (male BDF1 mice; [3]) of the same substance?
A: dose-dependent increases

Q: What about the “cortical BMD in the tibia” value (male BDF1 mice; 3 weeks, PTH-(1-34) daily, PTH-(1-34)-Fc twice weekly, various doses) of the same substance?
A: dose-dependent increase

Q: What about the “bone density and bone volume compared to daily PTH-(1-34)” value (male BDF1 mice; adult mice, twice weekly dosing) of the same substance?
A: greater increases in bone density and bone volume

Q: What about the “cortical BMD versus vehicle or daily PTH-(1-34)” value (male BDF1 mice; highest dose twice weekly, p<0.05) of the same substance?
A: significantly greater

Q: And the “cancellous BMD versus vehicle or daily PTH-(1-34)” value (male BDF1 mice; [4])?
A: significantly greater

Q: What about the “total BMD versus vehicle or daily PTH-(1-34)” value (male BDF1 mice; [4]) of the same substance?
A: significantly greater

Q: And the “calculated AP:TRAP ratio” value (mice [1]; 300 nmoles/kg)?
A: increased over time

Q: And the “serum AP (osteoblast marker)” value (mice [1]; 300 nmoles/kg (given for PTH-(1-34)-Fc), 72 h)?
A: significantly elevated

Q: And the “time of peak serum calcium” value (mice [1]; 300 nmoles/kg SC)?
A: 24 h

Q: What about the serum calcium (mice [1]; 300 nmoles/kg SC (equimolar), 24, 48, 72 h) of the same substance?
A: dramatic and sustained increase

Q: And the “bone mineral density (proximal tibial metaphysis)” value (mice [1]; 300 nmoles/kg on day 0, 5, 10, pQCT day 15)?
A: no effect

Q: What about the “serum TRAP (osteoclast marker)” value (mice [1]; mice, after single SC injection) of the same substance?
A: not significantly changed

Q: What about the “BMD in L3 compared to PBS-treated rats” value (Sprague Dawley (SD) rats) of the same substance?
A: failed to increase BMD

Q: And the “peak ionized calcium levels compared with an equimolar dose of PTH-(1-34)” value (mice [2]; highest dose)?
A: greater increase in peak ionized calcium levels

Q: What about the “hypercalcemic response (area under the curve) relative to equimolar PTH-(1-34)” value (mice [2]; highest dose employed) of the same substance?
A: 2.6 fold

Q: And the “potency compared with PTH-(1-34)” value (mice [2]; hypercalcemic response)?
A: significantly greater

Q: What about the duration of hypercalcemia (mice [2]; single SC injection, equimolar doses, blood ionized calcium) of the same substance?
A: 48 to 72 h

Q: And the “time within which a single subcutaneous dose is cleared” value (OVX cynomolgus monkeys; primates, inferred from calcemic response)?
A: ≤ 1 week

Q: And the “persistence of hypercalcemic response” value (OVX cynomolgus monkeys; single subcutaneous injection 10-34 nmol/kg)?
A: about 168 hours
